Patent US8669249B2, “Poly (ADP-ribose) polymerase (PARP) inhibitors” (Takeda Pharmaceutical Company Limited, priority 2009, dated 2014)
pIC50, pKd: −log10 of the molar value. Read-outs that look alike come from different tables or passages of the source.

Tests used:
[1] = target: T1, catalytic domain of Human PARP (Homo sapiens, UniProt P09874); test: Biacore surface plasmon resonance affinity assay; format: binding; details: for Kd: pKD=-log10 KD, KD in mol/L, Biacore T100, 25° C., read-out: pKD (converted)
T1 construct: The catalytic domain of Human PARP was cloned and prepared; made in house
Summary of the method: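 Binding at 25° C on Biacore T100: 1 min compound association then 5 min dissociation (50 μL/min) over immobilized PARP catalytic domain, buffer HBS-P plus 1% DMSO, 0.5 mM TCEP, 5 mM MgCl2, 2-fold dilution series. KD derived as koff/kon from fitted association and dissociation phases.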

Jurkat cell line = test: PARP cellular chemopotentiation assay (MTS, with/without TMZ); format: cell-based; details: Chemopotentiation factor: ratio of EC50 values of Jurkat cells co-treated without and with 100 μM TMZ; 96 hours
Protocol: Potentiation Factor (PF50) Determination from PARP Cellular Chemopotentiation Assay
Jurkat cell line was maintained according to the supplier (American Type Culture Collection (Rockville, Md.)). Cells were seeded in 96-well tissue culture microplates at 10,000 cells per well and cultured for 24 hours prior to addition of compounds, TMZ (Temozolomide) or DMSO (dimethylsulfoxide) vehicle. After 96 hours of treatment, the conversion of MTS ([3-(4,5-dimethylthiazol-2-yl)-5-(3-carboxymethoxyphenyl)-2-(4-sulfophenyl)-2H-tetrazolium, inner salt], Promega, Madison, Wis.) by metabolically active cells was determined through measuring the OD490 nm with a Spectramax microplate reader (Molecular Devices, San Diego, Calif.). To generate concentration-response curves, cells were treated in duplicate with a range of serial compound dilutions (final DMSO concentration was 0.5%) in the absence or presence of 100 μM TMZ chemoreagent. The percentage of viable cells per well was calculated by correction for background and normalizing against DMSO-treated cells. EC50 values for inhibition of cell viability were calculated using XLfit4 MicroSoft Excel curve-fitting software. Chemopotentiation factor PF50 was calculated as the ratio of EC50 values of cells co-treated without and with TMZ, respectively.

PARP = target: T2, PARP (Homo sapiens, UniProt P09874); test: PARP ELISA (ELISA-based colorimetric PARP/Apoptosis Assay kit, Trevigen); format: biochemical; details: pIC50=-log10 IC50, IC50 in mol/L; inhibition of PARP catalytic activity
T2 construct: purchased Trevigen 4684-096-K HT (kit); 4684-096-01 (PARP enzyme)
Protocol: Inhibition Constant (IC50) from PARP ELISA
After 10 minutes of catalysis the reaction is quenched by solvent aspiration followed by irrigation of the assay wells 4 times with phosphate buffered saline (PBS) containing 0.1% t-Octylphenoxypolyethoxyethanol (Triton® X-100). Mouse Anti-poly ADP ribose (PAR) monoclonal antibody, goat antimouse immunoglobulin G (IgG)-horse radish peroxidase (HRP) conjugate and HRP substrate are added according to the manufacture's specifications to generate a colorimetric signal proportional to PARP catalytic activity.

T1 sequence (P09874 788-1014 limits assumed): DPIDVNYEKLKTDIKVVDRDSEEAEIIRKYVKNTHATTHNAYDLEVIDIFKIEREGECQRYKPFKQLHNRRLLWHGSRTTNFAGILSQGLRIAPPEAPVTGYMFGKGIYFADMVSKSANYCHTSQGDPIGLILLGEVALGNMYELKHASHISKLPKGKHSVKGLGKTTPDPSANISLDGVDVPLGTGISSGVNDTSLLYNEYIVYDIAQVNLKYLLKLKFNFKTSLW
T2 sequence (P09874 whole entry): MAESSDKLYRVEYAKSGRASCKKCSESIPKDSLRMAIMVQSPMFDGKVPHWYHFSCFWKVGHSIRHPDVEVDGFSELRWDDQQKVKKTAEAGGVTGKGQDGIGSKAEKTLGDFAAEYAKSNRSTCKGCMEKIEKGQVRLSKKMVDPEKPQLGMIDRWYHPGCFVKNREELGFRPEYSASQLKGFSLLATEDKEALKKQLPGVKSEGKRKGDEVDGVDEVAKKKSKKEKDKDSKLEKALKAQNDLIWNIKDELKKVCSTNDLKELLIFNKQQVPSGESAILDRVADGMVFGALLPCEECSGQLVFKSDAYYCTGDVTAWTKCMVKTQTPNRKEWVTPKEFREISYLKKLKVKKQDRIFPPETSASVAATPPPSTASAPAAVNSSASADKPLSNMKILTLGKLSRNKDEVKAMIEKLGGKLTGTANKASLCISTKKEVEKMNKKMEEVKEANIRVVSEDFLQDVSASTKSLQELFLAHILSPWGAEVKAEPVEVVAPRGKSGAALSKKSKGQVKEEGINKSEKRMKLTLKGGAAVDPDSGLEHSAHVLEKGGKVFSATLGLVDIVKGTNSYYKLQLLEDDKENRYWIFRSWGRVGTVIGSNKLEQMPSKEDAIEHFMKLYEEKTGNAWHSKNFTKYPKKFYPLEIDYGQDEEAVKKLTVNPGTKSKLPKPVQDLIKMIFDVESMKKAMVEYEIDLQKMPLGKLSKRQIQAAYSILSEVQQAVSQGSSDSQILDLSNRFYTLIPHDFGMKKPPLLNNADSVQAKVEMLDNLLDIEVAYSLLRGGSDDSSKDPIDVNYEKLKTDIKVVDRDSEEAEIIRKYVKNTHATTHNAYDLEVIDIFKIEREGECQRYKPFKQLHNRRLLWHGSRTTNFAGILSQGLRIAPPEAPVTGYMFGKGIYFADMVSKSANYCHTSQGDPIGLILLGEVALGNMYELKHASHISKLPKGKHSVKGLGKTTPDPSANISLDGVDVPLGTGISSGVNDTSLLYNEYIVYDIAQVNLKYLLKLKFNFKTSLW

## Cc1ccc(N2CCN(Cc3ccc4c(c3)NC(=O)C(C)O4)CC2)nc1 (stereo not drawn) [Compound 229, 2-Methyl-6-((4-(5-methylpyridin-2-yl)piperazin-1-yl)methyl)-2H-benzo[b][1,4]oxazin-3(4H)-one]
[1]
  Kd: ≤ 10 nM
Jurkat cell line
  PF50: 1.0-1.9

## COc1cc(CN2CC=C(c3ccccc3)CC2)cc2c1OC(C)C(=O)N2 (stereo not drawn) [Compound 158, 8-Methoxy-2-methyl-6-((4-phenyl-5,6-dihydropyridin-1(2H)-yl)methyl)-2H-benzo[b][1,4]oxazin-3(4H)-one]
[1]
  Kd: 12.6 to 100 nM
Jurkat cell line
  PF50: 1.0-1.9

## CC1Oc2cc(Cl)c(CN3CCN(c4ccccc4)CC3)cc2NC1=O (stereo not drawn) [Compound 89, 7-Chloro-2-methyl-6-((4-phenylpiperazin-1-yl)methyl)-2H-benzo[b][1,4]oxazin-3(4H)-one]
[1]
  Kd: 1260 to 10000 nM
Jurkat cell line
  PF50: 1.0-1.9

## Cc1cc(CN2CC=C(c3ccc(Cl)cc3)CC2)cc2c1OC(C)C(=O)N2 (stereo not drawn) [Compound 263, 6-((4-(4-Chlorophenyl)-5,6-dihydropyridin-1(2H)-yl)methyl)-2,8-dimethyl-2H-benzo[b][1,4]oxazin-3(4H)-one]
PARP
  pIC50: ≤ 6.90
[1]
  Kd: > 10000 nM

## CC1Oc2ccc(CN3CCN(c4ccc(S(C)(=O)=O)cc4)CC3)cc2NC1=O (stereo not drawn) [Compound 227, 2-Methyl-6-((4-(4-(methylsulfonyl)phenyl)piperazin-1-yl)methyl)-2H-benzo[b][1,4]oxazin-3(4H)-one]
Jurkat cell line
  PF50: 1.0-1.9

## CC1Oc2c(F)cc(CN3CCN(c4ccc(C(=O)O)cc4)CC3)cc2NC1=O (stereo not drawn) [Compound 270, 4-(4-((8-Fluoro-2-methyl-3-oxo-3,4-dihydro-2H-benzo[b][1,4]oxazin-6-yl)methyl)piperazin-1-yl)benzoic acid]
PARP
  pIC50: ≤ 6.90
[1]
  Kd: 1260 to 10000 nM

## COc1ccc(CN(C)Cc2ccc3c(c2)NC(=O)C(C)O3)cc1 (stereo not drawn) [Compound 74, 6-(((4-Methoxybenzyl)(methyl)amino)methyl)-2-methyl-2H-benzo[b][1,4]oxazin-3(4H)-one]
[1]
  Kd: 126 to 1000 nM
Jurkat cell line
  PF50: 1.0-1.9

## O=C1Nc2cc(CN3CC=C(c4ccc(Cl)cc4)CC3)ccc2OC1F (stereo not drawn) [Compound 97, 6-((4-(4-Chlorophenyl)-5,6-dihydropyridin-1(2H)-yl)methyl)-2-fluoro-2H-benzo[b][1,4]oxazin-3(4H)-one]
[1]
  Kd: ≤ 10 nM
Jurkat cell line
  PF50: ≦0.9

## CNC(=O)CN1CCN(Cc2ccc3c(c2)NC(=O)C(C)O3)CC1 (stereo not drawn) [Compound 171, N-Methyl-2-(4-((2-methyl-3-oxo-3,4-dihydro-2H-benzo[b][1,4]oxazin-6-yl)methyl)piperazin-1-yl)acetamide]
[1]
  Kd: 126 to 1000 nM
Jurkat cell line
  PF50: ≦0.9

## COc1cc(CN2CCN(c3ccc(C(=O)NC4CC4)cc3C)CC2)cc2c1OC(C)C(=O)N2 (stereo not drawn) [Compound 364, N-Cyclopropyl-4-{4-[(8-methoxy-2-methyl-3-oxo-3,4-dihydro-2H-1,4-benzoxazin-6-yl)methyl]piperazin-1-yl}-3-methylbenzamide]
Jurkat cell line
  PF50: 4365

## CC1Oc2ccc(CN3CCN(c4ccccc4O)CC3)cc2NC1=O (stereo not drawn) [Compound 57, 6-((4-(2-Hydroxyphenyl)piperazin-1-yl)methyl)-2-methyl-2H-benzo[b][1,4]oxazin-3(4H)-one]
[1]
  Kd: 12.6 to 100 nM
Jurkat cell line
  PF50: 1.0-1.9

## COc1cc(CN2CCN(c3ccc(C(=O)O)cc3)CC2)cc2c1OC(C)C(=O)N2 (stereo not drawn) [Compound 160, 4-(4-((8-Methoxy-2-methyl-3-oxo-3,4-dihydro-2H-benzo[b][1,4]oxazin-6-yl)methyl)piperazin-1-yl)benzoic acid]
PARP
  pIC50: ≤ 6.90
[1]
  Kd: 126 to 1000 nM

## CC1Oc2ccc(CN3Cc4ccc([N+](=O)[O-])cc4C3)cc2NC1=O (stereo not drawn) [Compound 240, 2-Methyl-6-((5-nitroisoindolin-2-yl)methyl)-2H-benzo[b][1,4]oxazin-3(4H)-one]
PARP
  pIC50: ≤ 6.90
[1]
  Kd: 126 to 1000 nM

## CC1Oc2ccc(CN3Cc4ccc(NC(=O)c5ccccc5)cc4C3)cc2NC1=O (stereo not drawn) [Compound 244, N-(2-((2-Methyl-3-oxo-3,4-dihydro-2H-benzo[b][1,4]oxazin-6-yl)methyl)isoindolin-5-yl)benzamide]
[1]
  Kd: 1260 to 10000 nM
Jurkat cell line
  PF50: ≦0.9

## O=C1COc2ccc(CN3CC=C(c4ccc(Cl)cc4)CC3)cc2N1 [Compound 54, 6-((4-(4-Chlorophenyl)-5,6-dihydropyridin-1(2H)-yl)methyl)-2H-benzo[b][1,4]oxazin-3(4H)-one]
[1]
  pKd: 7.00 to 7.90
Jurkat cell line
  PF50: ≦0.9

## C[C@@H]1Oc2ccc(CN3CCC(c4ccccc4)CC3)cc2NC1=O [Compound 46, (S)-2-Methyl-6-((4-phenylpiperidin-1-yl)methyl)-2H-benzo[b][1,4]oxazin-3(4H)-one]
[1]
  Kd: 12.6 to 100 nM
Jurkat cell line
  PF50: 1.0-1.9

## O=C1Nc2cc(CN3CC=C(c4ccc(F)cc4)CC3)ccc2OC1F (stereo not drawn) [Compound 101, 2-Fluoro-6-((4-(4-fluorophenyl)-5,6-dihydropyridin-1(2H)-yl)methyl)-2H-benzo[b][1,4]oxazin-3(4H)-one]
[1]
  Kd: ≤ 10 nM
Jurkat cell line
  PF50: 1.0-1.9

## CC1Oc2ccc(CN3CCN(c4ccc(C(F)(F)F)cn4)CC3)cc2NC1=O (stereo not drawn) [Compound 230, 2-Methyl-6-((4-(5-(trifluoromethyl)pyridin-2-yl)piperazin-1-yl)methyl)-2H-benzo[b][1,4]oxazin-3(4H)-one]
[1]
  Kd: 12.6 to 100 nM
Jurkat cell line
  PF50: 1.0-1.9

## CCOC(=O)c1ccc(N2CCN(Cc3cc(F)c4c(c3)NC(=O)C(C)O4)CC2)cc1 (stereo not drawn) [Compound 269, Ethyl 4-(4-((8-fluoro-2-methyl-3-oxo-3,4-dihydro-2H-benzo[b][1,4]oxazin-6-yl)methyl)piperazin-1-yl)benzoate]
PARP
  pIC50: ≤ 6.90
[1]
  Kd: 126 to 1000 nM

## CCNC(=O)c1ccc(N2CCN(Cc3cc4c(c(OC(F)F)c3)OC(C)C(=O)N4)CC2)c(Cl)c1 (stereo not drawn) [Compound 405, 3-Chloro-4-(4-((8-(difluoromethoxy)-2-methyl-3-oxo-3,4-dihydro-2H-benzo[b][1,4]oxazin-6-yl)methyl)piperazin-1-yl)-N-ethylbenzamide]
Jurkat cell line
  PF50: 5.3

## CCOC(=O)c1ccc(N2CCN(Cc3cc4c(c(OC)c3)OC(C)C(=O)N4)CC2)cc1 (stereo not drawn) [Compound 159, Ethyl 4-(4-((8-methoxy-2-methyl-3-oxo-3,4-dihydro-2H-benzo[b][1,4]oxazin-6-yl)methyl)piperazin-1-yl)benzoate]
PARP
  pIC50: ≤ 6.90
[1]
  Kd: < 31.6 nM

## COc1cc(CN2CCC(c3ccccc3)CC2)cc2c1OC(C)C(=O)N2 (stereo not drawn) [Compound 157, 8-Methoxy-2-methyl-6-((4-phenylpiperidin-1-yl)methyl)-2H-benzo[b][1,4]oxazin-3(4H)-one]
[1]
  Kd: 12.6 to 100 nM
Jurkat cell line
  PF50: 1.0-1.9

## COc1ccccc1N1CCN(Cc2ccc3c(c2)NC(=O)C(C)O3)CC1 (stereo not drawn) [Compound 60, 6-((4-(2-Methoxyphenyl)piperazin-1-yl)methyl)-2-methyl-2H-benzo[b][1,4]oxazin-3(4H)-one]
[1]
  Kd: 126 to 1000 nM
Jurkat cell line
  PF50: 1.0-1.9

## CC1Oc2ccc(CN3CCc4cc(Cl)ccc4C3)cc2NC1=O (stereo not drawn) [Compound 80, 6-((6-Chloro-3,4-dihydroisoquinolin-2(1H)-yl)methyl)-2-methyl-2H-benzo[b][1,4]oxazin-3(4H)-one]
[1]
  Kd: 126 to 1000 nM
Jurkat cell line
  PF50: ≦0.9

## CC1Oc2ccc(CN3CCc4cc(Br)ccc4C3)cc2NC1=O (stereo not drawn) [Compound 81, 6-((6-Bromo-3,4-dihydroisoquinolin-2(1H)-yl)methyl)-2-methyl-2H-benzo[b][1,4]oxazin-3(4H)-one]
[1]
  Kd: 12.6 to 100 nM
Jurkat cell line
  PF50: ≦0.9

## CC1Oc2c(F)cc(CN3CC=C(c4ccc(Cl)cc4)CC3)cc2NC1=O (stereo not drawn) [Compound 268, 6-((4-(4-Chlorophenyl)-5,6-dihydropyridin-1(2H)-yl)methyl)-8-fluoro-2-methyl-2H-benzo[b][1,4]oxazin-3(4H)-one]
PARP
  pIC50: ≤ 6.90
[1]
  Kd: > 10000 nM

## CC1Oc2ccc(CN(C)Cc3ccc(Cl)cc3)cc2NC1=O (stereo not drawn) [Compound 70, 6-(((4-Chlorobenzyl)(methyl)amino)methyl)-2-methyl-2H-benzo[b][1,4]oxazin-3(4H)-one]
Jurkat cell line
  PF50: 1.0-1.9

## CC1Oc2ccc(CN3Cc4ccccc4C3)cc2NC1=O (stereo not drawn) [Compound 239, 6-(Isoindolin-2-ylmethyl)-2-methyl-2H-benzo[b][1,4]oxazin-3(4H)-one]
PARP
  pIC50: ≤ 6.90
[1]
  Kd: 126 to 1000 nM

## CC1Oc2ccc(CN3CCN(c4ccc(C(=O)O)cn4)CC3)cc2NC1=O (stereo not drawn) [Compound 233, 6-(4-((2-Methyl-3-oxo-3,4-dihydro-2H-benzo[b][1,4]oxazin-6-yl)methyl)piperazin-1-yl)nicotinic acid]
PARP
  pIC50: ≤ 6.90
[1]
  Kd: 1260 to 10000 nM
